# Measured values published in patent US4145253A, “Process for producing fortimicin factors” (Abbott Laboratories, priority 1976, dated 1979).
# “Also recorded” adds a separate entry of the source. Where a name gives a salt, the structure may show the parent alone. Read-outs that look alike come from different tables or passages of the source.
# What was measured:
# [1] = test system: Bacillus subtilis No. 10707; assay: antibacterial activity of preparations (paper disc method); type: cell-based
# Experimental: After the completion of fermentation, the culture liquor is adjusted to pH 2.5 with concentrated sulfuric acid and is stirred for 30 minutes. Thereafter, about 7 kg of a filter aid, Radiolite No. 600 (product of Showa Kagaku Kogyo Co., Ltd.) is added to the culture liquor and the microbial cells are removed by filtration. The filtrate is adjusted to pH 7.5 by the addition of 6N sodium hydroxide, and then passed through a column packed with about 20 l of a cation exchange resin, Amberlite IRC-50 (ammonium form). The active principles are adsorbed on the resin, and the effluent is discarded. After the resin is washed with water, elution of the active principles is carried out with 0.5N aqueous ammonia. The eluate is subjected to determination of activity by a paper disc method using an agar plate of Bacillus subtilis No. 10707. Fractions showing an activity are combined and concentrated under reduced pressure to about 1 L. The concentrate is then passed through a column packed with 500 ml of an anion exchange resin, Dowex 1 × 2 (OH form) and then about 2 L of water is passed through the column. In this manner, impurities are removed and the active principles are eluted with water. The active fractions are combined and concentrated under reduced pressure to about 100 ml. The concentrate is passed through a column packed with about 50 ml of active carbon powder whereby the active principles are adsorbed. The column is washed with water and the effluent and washings are discarded. Elution is carried out with 0.2N sulfuric acid. The eluate is subjected to determination of activity by a paper disc method using Bacillus subtilis No. 10707. The active fractions are combined and passed through a column of a resin, Dowex 44 (OH form) and elution of the active principles is carried out with water. The active fractions are combined and concentrated to about 50 ml. The concentrate is freeze-dried to obtain a crude powder of Fortimicin complex. The yield of the crude powder is about 35 g and the activity is 580 unit/mg (activity of 1 mg of the pure preparate corresponds to 1,000 units).
# About 500 ml of silica gel is suspended in a solvent comprising isopropanol, chloroform, and concentrated aqueous ammonia (4:2:1 by volume) and packed in a glass column as a tight, uniform layer. Thereafter, the column is thoroughly washed with the same solvent. Then 10 g of the crude powder obtained in the above step B is charged over the silica gel to form a uniform, thin layer. After the crude powder is charged, the same solvent is poured gradually into the column from the top and thereafter elution is carried out continuously at a flow rate of about 50 ml/hour. The eluate is recovered in 20 ml fractions and each of the fractions is subjected to determination of activity by the paper disc method using Bacillus subtilis No. 10707. First, Fortimicin B is eluted followed by Fortimicin A. Then, the elution is continued and after Fortimicin C is eluted, Fortimicin D is eluted. The active fractions are subjected to thin layer chromatography and the fractions containing Fortimicin D are combined and concentrated under reduced pressure to sufficiently remove the solvent.
# About 500 ml of silica gel, suspended in a solvent comprising isopropanol, chloroform, and concentrated aqueous ammonia (4:2:1 by volume) is packed in a glass column as a tight, uniform layer. Thereafter, the column is thoroughly washed with the same solvent. Then the crude powder obtained above is charged over the silica gel in a uniform thin layer and the same solvent is poured gradually into the column from the top and thereafter elution is carried out continuously at a flow rate of about 50 ml/hour. The eluate is recovered in 20 ml fractions and each of the fractions is subjected to determination of activity by the paper disc method using Bacillus subtilis No. 10707. First, Fortimicin B is eluted followed by Fortimicin KE. […]
# [2] = test system: Pseudomonas aeruginosa BMH No. 1; assay: antibacterial spectrum, MIC by agar dilution method; type: cell-based; conditions: BMHNO.1, pH 8.0, read-out: Minimum Inhibitory Concentration
# From the text: (§1) Table 4 illustrates the antibacterial spectra of Fortimicin D and Fortimicin KE against various microorganisms.
# (§2) (Minimum Inhibitory Concentration, γ/ml
# (§3) measured by agar dilution method at pH 8.0)
# [3] = test system: Shigella sonnei ATCC 9290; assay: as above; type: cell-based; conditions: ATCC9290, pH 8.0, read-out: Minimum Inhibitory Concentration
# From the text: as §1, §2, §3
# Escherichia coli KY 8315 = assay: as above; type: cell-based
# From the text: as §1, §2, §3
# [4] = test system: Klebsiella pneumoniae ATCC 10031; assay: as above; type: cell-based
# From the text: as §1, §2, §3
# Escherichia coli ATCC 26 = assay: as above; type: cell-based
# From the text: as §1, §2, §3
# Escherichia coli KY 8327 = assay: as above; type: cell-based; conditions: for MIC: Escherichia coli
# From the text: as §1, §2, §3
# [5] = test system: Bacillus subtilis No. 10707; assay: as above; type: cell-based; conditions: pH 8.0, read-out: Minimum Inhibitory Concentration
# From the text: as §1, §2, §3
# [6] = test system: Staphylococcus aureus ATCC 6538P; assay: as above; type: cell-based; conditions: ATCC6538P, pH 8.0, read-out: Minimum Inhibitory Concentration
# From the text: as §1, §2, §3
# [7] = test system: Salmonella typhosa ATCC 9992; assay: as above; type: cell-based; conditions: Salmonella enterica, pH 8, read-out: Minimum Inhibitory Concentration
# From the text: as §1, §2, §3
# [8] = solubility of the free base; type: physicochemical; conditions: for solubility in organic solvents: chloroform, benzene, ethyl acetate, butyl acetate, ethyl ether, butanol, petroleum ether, n-hexane, etc., ordinary organic solvents; for solubility in ethanol and acetone / solubility in methanol / solubility in water: free base
# [9] = test system: Gram-positive and Gram-negative bacteria; assay: antibacterial spectrum, statement in words; type: cell-based
# From the text: as §1, §2, §3
# [10] = stability in alkaline solution; type: physicochemical
# LD50 for dd-mouse = conditions: in vivo; dd-mouse weighing 20 ± 1 g
# From the text: Further, Fortimicin D is expected to have a therapeutic effect on various infections (in human beings and in animals) induced by the above-mentioned various bacteria. […] With such antibacterial properties, Fortimicin D is applicable to medicinal purposes.
# [11] = test system: Pseudomonas aeruginosa KY 8510; assay: antibacterial spectrum, MIC by agar dilution method; type: cell-based; conditions: KY8510, pH 8.0, strain resistant to kanamycin, kanamycin B, tobramycin, gentamicin C1a and ribostamycin, read-out: Minimum Inhibitory Concentration
# From the text: as §1, §2, §3
# [12] = Examples 2 and 3, before cellulose column chromatography
# [13] = Examples 2 and 3, free base after cellulose column chromatography
# [14] = Examples 4 and 5, purified preparate, Casamino acid medium
# [15] = Table 5, purified preparate from Micromonospora olivoasterospora MK-70
# [16] = Table 5, purified preparate from Micromonospora olivoasterospora MK-80
# [17] = Table 5, purified preparate from Micromonospora olivoasterospora Mm 744
# [18] = preparate of Example 1, strain CS-26, silica gel chromatography
Structure (SMILES),"activity ([1]; Examples 8 and 9, sulfate)",MIC [2],MIC [3],MIC [5],MIC [6],MIC [7],solubility in organic solvents [8],solubility in ethanol and acetone [8],solubility in methanol [8],solubility in water [8],antibacterial activity / spectrum [9],"activity [1, 12]","activity [1, 13]","activity [1, 14]","activity [1, 15]","activity [1, 16]","activity [1, 17]","activity [1, 18]",also measured
CNC1C(O)C(OC2OC(CN)CCC2N)C(N)C(O)C1OC (stereo not shown) [sulfate of Fortimicin KE],about 610 unit/mg,–,–,–,–,–,–,–,–,–,–,–,–,–,–,–,–,–,–
CNC1C(O)C(OC2OC(CN)CCC2N)C(N)C(O)C1OC (stereo not shown) [Fortimicin KE],–,208 µg/mL,26.1 µg/mL,104 µg/mL,1.65 µg/mL,13.1 µg/mL,poorly soluble; also recorded: insoluble,slightly soluble,soluble,readily soluble,broad antibacterial spectrum,about 860 unit/mg,980 unit/mg,about 985 unit/mg,985 unit/mg,980 unit/mg,990 unit/mg,about 970 unit/mg,"MIC (Escherichia coli KY 8315; KY8315, pH 8, read-out: Minimum Inhibitory Concentration): 26.1 µg/mL; MIC ([4]; ATCC10031, pH 8, read-out: Minimum Inhibitory Concentration): 26.1 µg/mL; MIC (Escherichia coli ATCC 26; ATCC26, pH 8, read-out: Minimum Inhibitory Concentration): 26.1 µg/mL; MIC (Escherichia coli KY 8327; KY8327, pH 8, read-out: Minimum Inhibitory Concentration): 26.1 µg/mL; activity ([1]; Example 7, free base obtained from Fortimicin D with barium hydroxide): about 970 unit/mg; stability in an alkaline solution [10]: stable in an alkaline solution"
COC1C(O)C(N)C(OC2OC(CN)CCC2N)C(O)C1N(C)C(=O)CN (stereo not shown) [Fortimicin D sulfate],about 650 unit/mg,–,–,–,–,–,–,–,–,–,–,–,–,–,–,–,–,–,LD50 (LD50 for dd-mouse): 159 mg/kg
COC1C(O)C(N)C(OC2OC(CN)CCC2N)C(O)C1N(C)C(=O)CN (stereo not shown) [Fortimicin D],–,5 µg/mL,0.3 µg/mL,0.02 µg/mL,0.02 µg/mL,0.08 µg/mL,poorly soluble; also recorded: insoluble,slightly soluble,soluble,readily soluble,strong antibacterial activity against a broad range of Gram-positive and Gram-negative bacteria,about 840 unit/mg,970 unit/mg,about 975 unit/mg,985 unit/mg,975 unit/mg,990 unit/mg,about 980 unit/mg,"MIC (Escherichia coli KY 8315; KY8315, agar dilution method, pH 8.0, read-out: Minimum Inhibitory Concentration): 0.13 µg/mL; MIC ([4]; ATCC10031, agar dilution method, pH 8.0, read-out: Minimum Inhibitory Concentration): 0.08 µg/mL; MIC (Escherichia coli ATCC 26; ATCC26, agar dilution method, pH 8.0, read-out: Minimum Inhibitory Concentration): 0.32 µg/mL; MIC (Escherichia coli KY 8327; KY8327, agar dilution method, pH 8.0, strain resistant to kanamycin, gentamicin and tobramycin, read-out: Minimum Inhibitory Concentration): 0.13 µg/mL; activity against resistant Escherichia coli (Escherichia coli KY 8327; certain strains of Escherichia coli resistant to kanamycin, gentamicin and tobramycin): effective against certain strains of Escherichia coli which are resistant to kanamycin, gentamicin and tobramycin; MIC [11]: 5 µg/mL"
